Test results reported in ChEMBL document CHEMBL1201862, “PubChem BioAssay data set” (2004).
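All cell lines were grown in 96-well plates and treated with compound for 48 hours. GI50 = concentration required for 50% inhibition of growth.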 The source made the active and inactive calls. Rule as the data show it: active = GI50 up to about 1.1 µM and inactive = higher.

Legend:
Test in all cases: NCI tumour cell line growth inhibition, 48 h
786-0 = test system: 786-0
A498 = test system: A498
BT-549 = test system: BT-549
HOP-92 = test system: HOP-92
HT-29 = test system: HT-29
Hs-578T = test system: Hs-578T
K562 = test system: K562
LOX IMVI = test system: LOX IMVI
Malme-3M = test system: Malme-3M
NCI-H226 = test system: NCI-H226
NCI-H460 = test system: NCI-H460
OVCAR-4 = test system: OVCAR-4
OVCAR-5 = test system: OVCAR-5
OVCAR-8 = test system: OVCAR-8
SF-295 = test system: SF-295
SK-MEL-28 = test system: SK-MEL-28
U-251 = test system: U-251
SNB-75 = test system: SNB-75
UO-31 = test system: UO-31

Measured: GI50

O=c1c2c([N+](=O)[O-])cccc2nc2[nH]c3ccccc3n12
inactive: 786-0 29.1 µM | A498 26.6 µM | BT-549 20.5 µM | HOP-92 19.8 µM | HT-29 63.2 µM | Hs-578T 26.5 µM | K562 > 75 µM | LOX IMVI 32.8 µM | Malme-3M 46 µM | NCI-H226 22.3 µM | NCI-H460 20.9 µM | OVCAR-4 11.6 µM | OVCAR-5 > 75 µM | OVCAR-8 14.5 µM | SF-295 23.1 µM | SK-MEL-28 > 75 µM | U-251 20.2 µM

CCCCNC(=O)c1cc2c(cc1Cl)Sc1nccn1S2(=O)=O
inactive: 786-0 55.6 µM | A498 > 100 µM | BT-549 78 µM | HOP-92 25.4 µM | HT-29 > 100 µM | Hs-578T 57.3 µM | K562 78.5 µM | LOX IMVI 30.3 µM | Malme-3M > 100 µM | NCI-H460 44.3 µM | OVCAR-4 43.7 µM | OVCAR-5 > 100 µM | OVCAR-8 > 100 µM | SF-295 > 100 µM | SK-MEL-28 > 100 µM | SNB-75 17.5 µM | U-251 54.8 µM | UO-31 > 100 µM

CN(C(=O)Cc1cc(Cl)c(Cl)cc1N=C=S)[C@H]1CCCC[C@@H]1N1CCCC1
inactive: 786-0 12.7 µM | A498 13.5 µM | BT-549 15.1 µM | HOP-92 9.42 µM | HT-29 5.94 µM | Hs-578T 15.5 µM | K562 2.02 µM | LOX IMVI 5.9 µM | Malme-3M 17.4 µM | NCI-H460 7.36 µM | OVCAR-4 13.3 µM | OVCAR-5 16.9 µM | OVCAR-8 14 µM | SF-295 16.7 µM | SK-MEL-28 1.39 µM | SNB-75 14.6 µM | U-251 14.9 µM | UO-31 15.5 µM

CC(=O)NNC(=O)C1CCCCN1 (stereo not given)
inactive: 786-0 > 100 µM | A498 > 100 µM | BT-549 > 100 µM | HOP-92 > 100 µM | HT-29 > 100 µM | Hs-578T > 100 µM | K562 > 100 µM | LOX IMVI > 100 µM | Malme-3M > 100 µM | NCI-H226 > 100 µM | NCI-H460 > 100 µM | OVCAR-4 > 100 µM | OVCAR-5 > 100 µM | OVCAR-8 > 100 µM | SF-295 > 100 µM | SK-MEL-28 > 100 µM | U-251 > 100 µM
